Laboratory results: patent publication US20250296971A1, “GASTRIC INHIBITORY PEPTIDE RECEPTOR LIGANDS” (priority 2021, published 2025)
*1 amine or outer side, *2 acyl side, *3 side chain or, on linkers, in order; H or OH if unused. Where a SMILES comes first, the peptide text is derived from it. Bridges are numbered along the chain shown (N, C = ends). [ ]: non-standard residue; d: D form. The star is where a group is joined. X12 = O=C(O)CN1CCN(CC(=O)O)CCN(CC(=O)N[C@H](CCC(=O)NC[C@H](O)[C@@H](O)[C@H](O)[C@H](O)CO)C(=O)*)CCN(CC(=O)O)CC1; NH(1-deoxy-D-glucityl) = OC[C@@H](O)[C@@H](O)[C@H](O)[C@@H](O)CN*; DOTA = O=C(O)CN1CCN(CC(=O)O)CCN(CC(=O)*)CCN(CC(=O)O)CC1; Trp(5-Cl) = N[C@@H](Cc1c[nH]c2ccc(Cl)cc12)C(=O)O; Pyridine(2,6-diCH2) = c1cc(C[*:1])nc(C[*:2])c1; Pro(4R-NH2) = N[C@H]1CN[C@H](C(=O)O)C1; Glutaryl = O=C(CCCC(=O)[*:2])[*:1]; Hyp = O=C(O)[C@@H]1C[C@@H](O)CN1; X1 = O=C(CN1CCC(N[*:1])CC1)[*:2]; Suc = O=C(CCC(=O)[*:2])[*:1]; Api = NC1(C(=O)O)CCNCC1; Thp = NC1(C(=O)O)CCOCC1

Tests used:
[1] = biological target: T1, human GIP receptor (bioGIPR) (Homo sapiens, UniProt P48546); experiment: Surface plasmon resonance (SPR) based binding assay; settings: Single Cycle Kinetic mode, 25° C.; for t1/2 Category: SPR dissociation half-life; for Kd: SPR, 1:1 Langmuir binding model, read-out: pKD Category (converted)
T1 construct: Biotinylate extracellular of the human GIP receptor (bioGIPR, Proteros biostructures GmbH, lot #02/2b); purchased Proteros biostructures GmbH lot #02/2b
T1 sequence (P48546 22-138 limits assumed): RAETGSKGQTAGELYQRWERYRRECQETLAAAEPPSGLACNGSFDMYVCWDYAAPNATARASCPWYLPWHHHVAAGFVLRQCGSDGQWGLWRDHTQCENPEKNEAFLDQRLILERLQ
Procedure: Surface plasmon resonance (SPR) studies were performed using a Biacore™ T200 SPR system. Briefly, polarized light is directed towards a gold-labeled sensor surface, and minimum intensity reflected light is detected. The angle of reflected light changes as molecules bind and dissociate.
Biotinylate extracellular of the human GIP receptor (bioGIPR, Proteros biostructures GmbH, lot #02/2b) was captured on a biotin capture chip (Biotin CAPture Kit, Series S, GE Healthcare, Cat #28-9202-34). bioGIPR was diluted in Running Buffer (HBST from Xantec Analytics; […], 0.05% Tween20, 0.1% DMSO) to a final concentration 100 nM and than flushed over the Fc-capture chip to immobilized ˜3500 RUs.
Stock solutions of test compounds were prepared by dissolving each compound in DMSO. DMSO stock solution were diluted 1:1000 in Running Buffer without DMSO. Further sequential dilutions were made with Running Buffer containing 0.1% DMSO. SPR binding analyses were performed in Single Cycle Kinetic (SCK) mode at 25° C. Flow cell without immobilized bioGIPR served as reference flowcell. After each SCK run, bioGIRP and the Biotin Capture Reagent was removed with Regeneration Solution (6 M Guanidium, 0.75 M NaOH).
In between every three SCK measurements, a blank run with Running Buffer instead of test compound was included to correct for baseline drifts (double blanking method).
For each test compound, SPR raw data in the form of resonance units (RU) were plotted as sensorgrams using the Biacore™ T200 control software. The signal from the blank sensorgram was subtracted from that of the test compound sensorgram (blank corrected). The blank corrected sensorgram was corrected for baseline drift by subtracting the sensorgram of a SCK run without the test compound (running buffer only). The association rate (kon), dissociation rate (koff), dissociation constant (KD), and t1/2 were calculated from blank corrected SPR data using the 1:1 Langmuir binding model from the Biacore™ T200 evaluation software. Raw data and fit results were imported as text files in IDBS. The pKD value (negative decadic logarithm of dissociation constant) was calculated in the IDBS excel template.

[2] = biological target: T2, GIPR (CHO-K1-hGIPR cells) (Homo sapiens, UniProt P48546); experiment: FACS binding assay; settings: competition with 20 nM GIP-057, 4° C., 1 hour, read-out: pIC50 Category (converted)
T2 construct: host or cells: CHO-K1
T2 sequence (P48546 22-466): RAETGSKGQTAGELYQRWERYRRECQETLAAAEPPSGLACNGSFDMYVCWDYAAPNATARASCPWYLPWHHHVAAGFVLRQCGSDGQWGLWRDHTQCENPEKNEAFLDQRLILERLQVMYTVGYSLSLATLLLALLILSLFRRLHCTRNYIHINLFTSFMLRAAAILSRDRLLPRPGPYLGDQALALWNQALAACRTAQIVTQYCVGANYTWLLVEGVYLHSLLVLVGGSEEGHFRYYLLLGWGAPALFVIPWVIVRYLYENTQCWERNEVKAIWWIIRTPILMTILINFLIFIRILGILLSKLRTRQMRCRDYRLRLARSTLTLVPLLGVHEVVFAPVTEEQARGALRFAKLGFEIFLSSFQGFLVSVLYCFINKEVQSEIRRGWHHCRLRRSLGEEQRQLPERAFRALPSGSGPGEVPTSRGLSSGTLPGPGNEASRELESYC
Procedure, shortened: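 Peptide binding read by flow cytometry as APC-channel median fluorescence, fitted with a four-parameter logistic to yield EC50 or IC50. Cells were hGIPR-transfected CHO-K1 in PBS with 1% FCS, detected with 1 μg/mL APC-streptavidin, 30 min on ice.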

| SMILES | t1/2 Category [1] | Kd [1] [nM] | IC50 [2] [nM] |
| --- | --- | --- | --- |
| CC[C@H](C)[C@@H]1NC(=O)[C@H](CC(C)C)NC(=O)C2(CCN(C(=O)[C@@H](CCC(=O)NC[C@H](O)[C@@H](O)[C@H](O)[C@H](O)CO)NC(=O)CN3CCN(CC(=O)O)CCN(CC(=O)O)CCN(CC(=O)O)CC3)CC2)NC(=O)[C@@H](NC(=O)[C@@H](CC(C)C)NC(=O)[C@H](CCC(=O)O)NC(=O)[C@@H]2C[C@@H](N)CN2C(=O)[C@H](Cc2c[nH]c3ccc(Cl)cc23)NC(=O)[C@H](Cc2c[nH]c3ccccc23)NC(=O)[C@H](CC(=O)O)NC(=O)CN2CCC(NC(=O)CCCC(=O)NC[C@H](O)[C@@H](O)[C@H](O)[C@H](O)CO)CC2)CSCc2cccc(n2)CSC[C@@H](C(=O)NC2CCN(CC(=O)N[C@H](CCC(=O)NC[C@H](O)[C@@H](O)[C@H](O)[C@H](O)CO)C(N)=O)CC2)NC1=O [GIP-008, AGLU-Glutar-APAc-Asp-Trp-5Clw-Tap-Glu-leu-[Cys(2Lut)-Apc(DOTA-glu(AGLU))-Leu-Ile-Cys]-APAc-glu(AGLU)-NH2] ({NH(1-deoxy-D-glucityl)-Glutaryl}-[X1]DW[Trp(5-Cl)][Pro(4R-NH2)]E[dL]C[Api](X12)LIC[X1][dE](NH(1-deoxy-D-glucityl))-NH2; linker 8-12 via Pyridine(2,6-diCH2)) | A (t1/2 values>15 min) | < 1 | < 10 |
| CC[C@H](C)[C@@H]1NC(=O)[C@H](CC(C)C)NC(=O)C2(CCN(C(=O)CN3CCN(CC(=O)O)CCN(CC(=O)O)CCN(CC(=O)O)CC3)CC2)NC(=O)[C@@H](NC(=O)[C@@H](CC(C)C)NC(=O)[C@H](CCC(=O)O)NC(=O)[C@@H]2C[C@@H](O)CN2C(=O)[C@H](Cc2c[nH]c3ccc(Cl)cc23)NC(=O)[C@H](Cc2c[nH]c3ccccc23)NC(=O)[C@H](CC(=O)O)NC(=O)CN2CCC(NC(=O)CCCC(=O)NC[C@H](O)[C@@H](O)[C@H](O)[C@H](O)CO)CC2)CSCc2cccc(n2)CSC[C@@H](C(=O)NC2CCN(CC(=O)N[C@H](CCC(=O)NC[C@H](O)[C@@H](O)[C@H](O)[C@H](O)CO)C(N)=O)CC2)NC1=O [GIP-011, AGLU-Glutar-APAc-Asp-Trp-5Clw-Hyp-Glu-leu-[Cys(2Lut)-Apc(DOTA)-Leu-Ile-Cys]-APAc-glu(AGLU)-NH2] ({NH(1-deoxy-D-glucityl)-Glutaryl}-[X1]DW[Trp(5-Cl)][Hyp]E[dL]C[Api](DOTA)LIC[X1][dE](NH(1-deoxy-D-glucityl))-NH2; linker 8-12 via Pyridine(2,6-diCH2)) | A (t1/2 values>15 min) | < 1 | < 10 |
| CC[C@H](C)[C@@H]1NC(=O)[C@H](CC(C)C)NC(=O)C2(CCOCC2)NC(=O)[C@@H](NC(=O)[C@@H](CC(C)C)NC(=O)[C@H](CCC(=O)O)NC(=O)[C@@H]2C[C@@H](O)CN2C(=O)[C@H](Cc2c[nH]c3ccc(Cl)cc23)NC(=O)[C@H](Cc2c[nH]c3ccccc23)NC(=O)CCC(=O)O)CSCc2cccc(n2)CSC[C@@H](C(=O)NC2CCN(CC(=O)N[C@H](CCC(=O)NC[C@H](O)[C@@H](O)[C@H](O)[C@H](O)CO)C(=O)N[C@@H](CCCCNC(=O)CN3CCN(CC(=O)O)CCN(CC(=O)O)CCN(CC(=O)O)CC3)C(N)=O)CC2)NC1=O [GIP-021, HO-Succinyl-Trp-5Clw-Hyp-Glu-leu-[Cys(2Lut)-Thp-Leu-Ile-Cys]-APAc-glu(AGLU)-Lys(DOTA)-NH2] (Suc-W[Trp(5-Cl)][Hyp]E[dL]C[Thp]LIC[X1][dE](NH(1-deoxy-D-glucityl))K(DOTA)-NH2; linker 6-10 via Pyridine(2,6-diCH2)) | A (t1/2 values>15 min) | < 1 | < 10 |
